Literature values, collected in patent publication US8497371B2, “Pipemidic acid derivative autotaxin inhibitors” (University of Memphis Research Foundation, priority 2009, dated 2013).

Columns and labels:
[1] = molecular target: ATX (Homo sapiens, UniProt Q13822); set-up: conditioned serum-free medium (CCM) from MDA-MB-435 cells as the source of ATX; endogenous in cells; host or cells: MDA-MB-435 cells (about 10x concentrated serum-free conditioned medium); settings: cited from earlier work
[2] = system: melanoma metastasis; settings: micromolar concentrations; cited from earlier work

O=[As](O)(O)c1ccc(Cc2ccc([As](=O)(O)O)cc2)cc1 [NSC 48300]
mechanism of inhibition (reported) [1]: competitive | inhibition of melanoma metastasis [2]: ~100%
